Molecules are shown by their SMILES. Calls of active or inactive are those of the source. The rule behind the calls is not given here.

The test system of the data set is CCRIS mutagenicity, Ames/micronucleus/aberration tests. Description: CCRIS mutagenicity studies.
[1] abbreviates: Test System: AMES SALMONELLA TYPHIMURIUM, Strain/Indicator: TA98, Metabolic Activation: NONE, Method: PREINCUBATION
The mark [2] stands for this setting: Test System: AMES SALMONELLA TYPHIMURIUM, Strain/Indicator: TA100, Metabolic Activation: NONE, Method: PREINCUBATION
Setting [3] is: Test System: AMES SALMONELLA TYPHIMURIUM, Strain/Indicator: TA1535, Metabolic Activation: NONE, Method: PREINCUBATION
Where [4] appears, read: Test System: AMES SALMONELLA TYPHIMURIUM, Strain/Indicator: TA1537, Metabolic Activation: NONE, Method: PREINCUBATION

Take `C[Si]1(C)O[Si](C)(C)O[Si](C)(C)O[Si](C)(C)O1`: the mutagenic call runs as follows: under setting [1], “inactive; negative”; (Test System: AMES SALMONELLA TYPHIMURIUM, Strain/Indicator: TA98, Metabolic Activation: NONE, Method: STANDARD PLATE) “inactive; negative”; (Test System: AMES SALMONELLA TYPHIMURIUM, Strain/Indicator: TA98, Metabolic Activation: RAT LIVER S-9, AROCLOR 1254, Method: PREINCUBATION) “inactive; negative”; (Test System: AMES SALMONELLA TYPHIMURIUM, Strain/Indicator: TA98, Metabolic Activation: RAT LIVER S-9, AROCLOR 1254, Method: STANDARD PLATE) “inactive; negative”; under setting [2], “inactive; negative”; (Test System: AMES SALMONELLA TYPHIMURIUM, Strain/Indicator: TA100, Metabolic Activation: NONE, Method: STANDARD PLATE) “inactive; negative”. Besides, the mutagenic call is, setting by setting: (Test System: AMES SALMONELLA TYPHIMURIUM, Strain/Indicator: TA100, Metabolic Activation: RAT LIVER S-9, AROCLOR 1254, Method: PREINCUBATION) “inactive; negative”; (Test System: AMES SALMONELLA TYPHIMURIUM, Strain/Indicator: TA100, Metabolic Activation: RAT LIVER S-9, AROCLOR 1254, Method: STANDARD PLATE) “inactive; negative”; under setting [3], “inactive; negative”; (Test System: AMES SALMONELLA TYPHIMURIUM, Strain/Indicator: TA1535, Metabolic Activation: NONE, Method: STANDARD PLATE) “inactive; negative”; (Test System: AMES SALMONELLA TYPHIMURIUM, Strain/Indicator: TA1535, Metabolic Activation: RAT LIVER S-9, AROCLOR 1254, Method: PREINCUBATION) “inactive; negative”; (Test System: AMES SALMONELLA TYPHIMURIUM, Strain/Indicator: TA1535, Metabolic Activation: RAT LIVER S-9, AROCLOR 1254, Method: STANDARD PLATE) “inactive; negative”. For the same molecule, the mutagenic call under setting [4] is “inactive; negative”; the mutagenic call (Test System: AMES SALMONELLA TYPHIMURIUM, Strain/Indicator: TA1537, Metabolic Activation: NONE, Method: STANDARD PLATE) is “inactive; negative”; the mutagenic call (Test System: AMES SALMONELLA TYPHIMURIUM, Strain/Indicator: TA1537, Metabolic Activation: RAT LIVER S-9, AROCLOR 1254, Method: PREINCUBATION) was “inactive; negative”; the mutagenic call (Test System: AMES SALMONELLA TYPHIMURIUM, Strain/Indicator: TA1537, Metabolic Activation: RAT LIVER S-9, AROCLOR 1254, Method: STANDARD PLATE) is “inactive; negative”; the mutagenic call (Test System: AMES SALMONELLA TYPHIMURIUM, Strain/Indicator: TA1538, Metabolic Activation: NONE, Method: PREINCUBATION) is “inactive; negative”; the mutagenic call (Test System: AMES SALMONELLA TYPHIMURIUM, Strain/Indicator: TA1538, Metabolic Activation: NONE, Method: STANDARD PLATE) was “inactive; negative”. Also, the mutagenic call is, setting by setting: (Test System: AMES SALMONELLA TYPHIMURIUM, Strain/Indicator: TA1538, Metabolic Activation: RAT LIVER S-9, AROCLOR 1254, Method: PREINCUBATION) “inactive; negative”; (Test System: AMES SALMONELLA TYPHIMURIUM, Strain/Indicator: TA1538, Metabolic Activation: RAT LIVER S-9, AROCLOR 1254, Method: STANDARD PLATE) “inactive; negative”; (Test System: E. COLI, Strain/Indicator: P3078 POLA, Metabolic Activation: NONE, Method: SPOT TEST) “inactive; negative”; (Test System: E. COLI, Strain/Indicator: P3078 POLA, Metabolic Activation: RAT LIVER S-9, AROCLOR 1254, Method: SPOT TEST) “inactive; negative”; (Test System: E. COLI, Strain/Indicator: W3110, Metabolic Activation: NONE, Method: SPOT TEST) “inactive; negative”; (Test System: E. COLI, Strain/Indicator: W3110, Metabolic Activation: RAT LIVER S-9, AROCLOR 1254, Method: SPOT TEST) “inactive; negative”. In addition, the mutagenic call runs as follows: (Test System: MOUSE LYMPHOMA, Strain/Indicator: L5178Y (TK+/TK-), Metabolic Activation: NONE, Method: SUSPENSION/PLATE) “inactive; negative”; (Test System: MOUSE LYMPHOMA, Strain/Indicator: L5178Y (TK+/TK-), Metabolic Activation: RAT, LIVER, S-9, Method: SUSPENSION/PLATE) “inactive; negative”; (Test System: Mouse lymphoma, Strain/Indicator: L5178Y (tk+/tk-), Metabolic Activation: None, Method: Suspension/plate) “inactive; inconclusive (previous evaluation negative)”; (Test System: Mouse lymphoma, Strain/Indicator: L5178Y (tk+/tk-), Metabolic Activation: Rat, Liver, S-9, Aroclor 1254, Method: Suspension/plate) “inactive; negative”.

For `CC(=O)c1ccccc1`, the mutagenic call is, setting by setting: (Test System: AMES SALMONELLA TYPHIMURIUM, Strain/Indicator: TA97, Metabolic Activation: NONE, Method: PREINCUBATION) “inactive; negative”; (Test System: AMES SALMONELLA TYPHIMURIUM, Strain/Indicator: TA97, Metabolic Activation: RAT, LIVER, S-9, AROCLOR 1254, Method: PREINCUBATION) “inactive; negative”; under setting [1], “inactive; negative”; (Test System: AMES SALMONELLA TYPHIMURIUM, Strain/Indicator: TA98, Metabolic Activation: RAT LIVER S-9, PHENOBARBITAL AND BETA-NAPHTHOFLAVONE, Method: PREINCUBATION) “inactive; negative”; under setting [2], “inactive; negative”; (Test System: AMES SALMONELLA TYPHIMURIUM, Strain/Indicator: TA100, Metabolic Activation: RAT LIVER S-9, PHENOBARBITAL AND BETA-NAPHTHOFLAVONE, Method: PREINCUBATION) “inactive; negative”. For the same molecule, the mutagenic call reads like this: (Test System: AMES SALMONELLA TYPHIMURIUM, Strain/Indicator: TA102, Metabolic Activation: NONE, Method: PREINCUBATION) “inactive; negative”; (Test System: AMES SALMONELLA TYPHIMURIUM, Strain/Indicator: TA102, Metabolic Activation: RAT, LIVER, S-9, AROCLOR 1254, Method: PREINCUBATION) “inactive; negative”; under setting [3], “inactive; negative”; (Test System: AMES SALMONELLA TYPHIMURIUM, Strain/Indicator: TA1535, Metabolic Activation: RAT LIVER S-9, PHENOBARBITAL AND BETA-NAPHTHOFLAVONE, Method: PREINCUBATION) “inactive; negative”; under setting [4], “inactive; negative”; (Test System: AMES SALMONELLA TYPHIMURIUM, Strain/Indicator: TA1537, Metabolic Activation: RAT LIVER S-9, PHENOBARBITAL AND BETA-NAPHTHOFLAVONE, Method: PREINCUBATION) “inactive; negative”. Also, the mutagenic call is, setting by setting: (Test System: E.COLI, Strain/Indicator: WP2UVRA/PKM101, Metabolic Activation: NONE, Method: PREINCUBATION) “inactive; negative”; (Test System: E.COLI, Strain/Indicator: WP2UVRA/PKM101, Metabolic Activation: RAT LIVER S-9, PHENOBARBITAL AND BETA-NAPHTHOFLAVONE, Method: PREINCUBATION) “inactive; negative”.

Take `c1ccc2c(c1)ccc1c2ccc2ccc3ccccc3c21`: the mutagenic call (Test System: AMES SALMONELLA TYPHIMURIUM, Strain/Indicator: TA100, Metabolic Activation: RAT, LIVER, MICROSOMES, AROCLOR 1254, Method: STANDARD PLATE) is “active; positive”; the mutagenic call (Test System: AMES SALMONELLA TYPHIMURIUM, Strain/Indicator: TA100, Metabolic Activation: RAT, LIVER, MICROSOMES, BENZO[C]CHRYSENE, Method: STANDARD PLATE) is “inactive; negative”; the mutagenic call (Test System: AMES SALMONELLA TYPHIMURIUM, Strain/Indicator: TA100, Metabolic Activation: RAT, LIVER, MICROSOMES, Method: STANDARD PLATE) was “inactive; negative”.

The record behind these values is PubChem BioAssay AID1259407 (Chemical Carcinogenesis Research Information System (CCRIS), 2018).
